How the values were obtained:
[1] = T1 relaxivity in human plasma (Minispec pc 20); format: physicochemical
[2] = Diffusibility: in vivo comparison with an intravasal and an extracellular contrast agent, ligated renal vessels; details: for Prozentsatz der im Blutraum verbliebenen Dosis: i.v. 20 µmol/kg each, ligated renal vessels, relative to Verbindung 2 set as 100 %
Protocol: Als Versuchstiere dienten drei 250 g schwere, männliche (Schering-SPF-) Ratten. Den Tieren wurden die Nierengefäße abgebunden, um eine renale Eliminierung zu verhindern und bei angenommener vernachlässigbarer faekaler Eliminierung ein Maß für Diffusibilität der erfindungsgemäßen Formulierung aus dem Blut in das umgebende Gewebe zu erhalten. Je Tier wurden 0.5 ml (jeweils 10 mmol/L) der folgenden Kontrastmittel-Lösung intravenös appliziert: Gemisch aus je 1 Teil der Verbindung des Beispiels 1g, im folgenden Verbindung 1 genannt, des intravasalen Kontrastmittels Eu-DTPA-Albumin, im folgenden Verbindung 2 genannt, und des extrazellulären Kontrastmittels Dy-DTPA, im folgenden Verbindung 3 genannt. Über einen Katheter in der Arteria carotis communis wurden Blutproben zu folgenden Zeitpunkten entnommen: 15, 30, 45, 60, 90 sec, 3, 5, 10, 15 min p.i. In den gewonnenen Blutproben wurden jeweils parallel die Konzentrationen an Gadolinium (Gd), Europium (Eu) und Dysprosium (Dy) mittels Atomemissionsspektrometrie (ICP-AES) gemessen. Der im Blutraum verbliebene Anteil des intravasalen Kontrastmittels Verbindung 2 (Eu) wurde als 100 % gesetzt. Der im Blutraum verbliebene Anteil der erfindungsgemäßen Formulierung Verbindung 1 (Gd) und der Verbindung 3 (Dy, extrazelluläre Vergleichssubstanz) konnte durch die unterschiedliche Markierung im gleichen Tier verglichen werden und wurde prozentual ins Verhältnis zur Konzentration der Verbindung 2 gesetzt. Damit liefern diese Daten Angaben über den Verbleib der Verbindungen im Intravasalraum.

[3] = Contrast-enhanced MR angiography (3D FLASH, 2.0 Tesla); format: in vivo, Ratten (Han. Wistar); details: directly after single i.v. 50 µmol/kg or 100 µmol/kg; 3 D FLASH 10/2.6/40°
Protocol: Die Untersuchungen zur kontrastmittelgetützten MR Angiographie wurden an einem experimentellen MRT System (SISCO SIS 85, 2.0 Tesla) mit einer 3 D FLASH Technik (10/2.6/40°) durchgeführt. Um die Wirksamkeit von Kontrastmitteln zur Darstellung von Blutgefäßen zu bestimmen, wurden narkotisierte (Rompun® + Ketavet®,1 + 1, v/v; ≈ 1 ml pro kg Körpergewicht, i. m.) Ratten (Han. Wistar; ≈ 200 g Körpergewicht) MR-tomographisch untersucht.
Figur 4 zeigt Abbildungen dieses Experiments. Die MIP (maximal intensity projection)-Bilder wurden berechnet aus den 3 D FLASH Experimenten vor (links) und direkt nach einmaliger i. v. Applikation von 50 µmol / kg (mitte) bzw. 100 µmol /kg (rechts) der Substanz aus Beispiel 1 g.

[4] = rat, in vivo, iv, 100 umol/kg
Text: Hierfür wurde nach einmaliger intravenöser Applikation (via einer Caudalvene) der Substanzen (Dosis: ≈ 100 µmol Metall pro kg Körpergewicht) die Substanzkonzentration im Blut (basierend auf dem Gd- bzw. Dy-Gehalt) über einen Zeitraum bis zu 120 Minuten p. i. mittels ICP-AES bestimmt. Die pharmakokinetischen Parameter: Verteilungsvolumen (Vss), Gesamtclearance (CLtot) und Eliminationshalbwertszeit (tb) wurden mit einem speziellen Computerprogramm (TOPFIT 2.0; Thomae, Schering, Gödecke) berechnet, wobei ein Zwei-Kompartment-Distributionsmodell zu Grunde gelegt wurde.
Die Gd- und Dy-Gehalte im Blut wurden mittels ICP-AES bestimmt.
Hierfür wurde nach einmaliger intravenöser Applikation (via einer Caudalvene) der Substanzen (Dosis: ≈ 100 µmol Metall pro kg Körpergewicht) die Substanzkonzentration im Blut (basierend auf dem Metallgehalt) über einen Zeitraum bis zu 120 Minuten p. i. mittels ICP-AES bestimmt. Die pharmakokinetischen Parameter: Verteilungsvolumen (Vss), Gesamtclearance (CLtot) und Eliminationshalbwertszeit (tb) wurden mit einem speziellen Computerprogramm (TOPFIT 2.0; Thomae, Schering, Gödecke) berechnet, wobei ein Zwei-Kompartment-Distributionsmodell zu Grunde gelegt wurde.

1,4,7-Tris {1,4,7-tris(N-carboxylatomethyl)-10-(N-1-methyl-3,6-diaza-2,5,8-trioxooctan-1,8-diyl)-1,4,7,10-tetraazacyclododecan, Gd-Komplex}-10-(N-2H,2H,4H,4H,5H,5H-3-oxa-perfluor-tridecanoyl)-1,4,7,10-tetraazacyclododecan [Beispiel 1g]
R^1 (T^1-Relaxivity) ([1]; 0.47 T, 20 MHz, 37 °C, Humanplasma, normalised to one metal atom): 19,5 L/mmol * sec
Relaxivity (r1, Plasma) ([1]; plasma): ≈ 19.5 1*mmol^- ^1*s^-1
Prozentsatz der im Blutraum verbliebenen Dosis ([2]; 30 sec p.i.): 84%
Prozentsatz der im Blutraum verbliebenen Dosis ([2]; 3 min p.i.): 62%
Prozentsatz der im Blutraum verbliebenen Dosis ([2]; 10 min p.i.): 44%
Blutkonzentrationen verglichen mit dem extrazellulären Kontrastmittel ([2]; early time points): deutlich höhere Blutkonzentrationen
Diffusion in das Interstitium im Vergleich zu Eu-DTPA-BSA (Verbindung 2) ([2]; first minute p.i.): nur geringfügig schneller
Diffusion in das Interstitium im Vergleich zu Dy-DTPA (Verbindung 3) ([2]; whole duration of the experiment): langsamer
Signalanstieg in den Blutgefäßen (MIP-Bilder) [3]: ausgeprägter Signalanstieg in den Blutgefäßen und eine deutliche Kontrastierung zum Normalgewebe
CL tot [4]: 0.41 mL/min/kg
Vss [4]: 0.09 L/kg

Reference: patent EP0993306B1, “PERFLUOROALKYLATED OLIGOMER COMPOUNDS, PROCESS FOR PREPARING THE SAME AND THEIR USE IN NMR DIAGNOSIS” (SCHERING AKTIENGESELLSCHAFT, priority 1997, dated 1999)
